The source of these data is patent US20250387400A1, “TYK2 INHIBITORS” (BIOGEN MA INC., priority 2022, published 2025).

What all share (format): biochemical
Experiment [1] deals with T1, catalytic kinase (JH1) domain of human TYK2 (Homo sapiens, UniProt P29597).
T1 construct: recombinantly generated catalytic kinase (also known as JH1) domain of human JAK1, JAK2, JAK3 and TYK2
T1 sequence (P29597 897-1176 limits assumed): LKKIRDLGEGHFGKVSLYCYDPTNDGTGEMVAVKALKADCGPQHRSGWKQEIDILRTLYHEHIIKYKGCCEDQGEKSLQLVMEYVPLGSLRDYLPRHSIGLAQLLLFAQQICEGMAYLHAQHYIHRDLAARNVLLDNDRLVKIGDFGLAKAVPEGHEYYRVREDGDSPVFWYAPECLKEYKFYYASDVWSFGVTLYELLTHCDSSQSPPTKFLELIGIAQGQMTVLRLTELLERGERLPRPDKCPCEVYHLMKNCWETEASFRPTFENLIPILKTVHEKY
In words: ADP-Glo kinase assay, TYK2 kinase domain. As for the experimental part:
(§1) As summarized in Table 3 below, compounds of the disclosure were assessed for their ability to inhibit TYK2, JAK1, JAK2, and JAK3 activity.
(§2) The kinase activity of recombinantly generated catalytic kinase (also known as JH1) domain of human JAK1, JAK2, JAK3 and TYK2 were evaluated in a plate-based assay using the ADP-Glo™ Kinase Assay platform. […] The reactions proceed for 100 minutes and the catalytic activity is quantified by first depleting the unused ATP, converting the hydrolyzed ADP into ATP to generate luminescence in a luciferase reaction; which is the basis of the ADP-Glo platform. Compounds are tested at either 10 μM or 1 μM top concentration, 11 points of 3-fold dilution. The data is normalized and the percent activity versus log concentration of compound is fitted with a 4-parameter logistic model to generate a curve and an IC50 value.
For orientation: ADP-Glo turns the ADP formed in a reaction into a luminescent signal.

Experiment [2] has as its target T2, catalytic kinase (JH1) domain of human JAK1 (Homo sapiens, UniProt P23458).
T2 construct: 4 nM of recombinant JAK1 kinase domain is used to phosphorylate
Description: ADP-Glo kinase assay, JAK1 kinase domain. Here is the method: as §1, §2

Experiment [3] concerns the target T3, catalytic kinase (JH1) domain of human JAK2 (Homo sapiens, UniProt O60674).
T3 construct: Catalytic activities of recombinant JAK2, JAK3 and TYK2 kinase domain
Description: ADP-Glo kinase assay, JAK2 kinase domain. As for the experimental part:
as §1, §2

Experiment [4] has as its target T4, catalytic kinase (JH1) domain of human JAK3 (Homo sapiens, UniProt P52333).
T4 construct: Catalytic activities of recombinant JAK2, JAK3 and TYK2 kinase domain
In words: ADP-Glo kinase assay, JAK3 kinase domain. As for the experimental part:
as §1, §2

Where [5] appears, read: 2 nM recombinant TYK2 kinase domain, 50 μM JAK3-974 peptide, 10 μM ATP, 100 minutes, read-out: TYK2 biochem IC50 (nM) Mean.
The mark [6] stands for this setting: 4 nM recombinant JAK1 kinase domain, 50 μM JAK3-342 peptide, 35 μM ATP, 100 minutes, read-out: JAK1 biochem IC50 (nM) Mean.
[7] abbreviates: 0.2 nM recombinant JAK2 kinase domain, 50 μM JAK3-974 peptide, 15 μM ATP, 100 minutes, read-out: JAK2 biochem IC50 (nM) Mean.
The mark [8] stands for this setting: 0.3 nM recombinant JAK3 kinase domain, 50 μM JAK3-974 peptide, 4 μM ATP, 100 minutes, read-out: JAK3 biochem IC50 (nM) Mean.

Read-outs that look alike come from different tables or passages of the source. Some results are limits rather than exact numbers.

T3 sequence (O60674 849-1124 limits assumed): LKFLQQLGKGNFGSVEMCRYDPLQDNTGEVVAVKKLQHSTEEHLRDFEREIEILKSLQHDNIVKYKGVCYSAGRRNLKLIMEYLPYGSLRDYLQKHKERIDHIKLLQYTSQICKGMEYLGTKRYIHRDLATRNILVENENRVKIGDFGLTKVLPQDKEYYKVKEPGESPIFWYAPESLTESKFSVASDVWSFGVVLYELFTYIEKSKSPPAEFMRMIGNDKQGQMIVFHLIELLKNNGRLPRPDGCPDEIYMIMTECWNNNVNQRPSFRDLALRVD
T4 sequence (P52333 822-1111 limits assumed): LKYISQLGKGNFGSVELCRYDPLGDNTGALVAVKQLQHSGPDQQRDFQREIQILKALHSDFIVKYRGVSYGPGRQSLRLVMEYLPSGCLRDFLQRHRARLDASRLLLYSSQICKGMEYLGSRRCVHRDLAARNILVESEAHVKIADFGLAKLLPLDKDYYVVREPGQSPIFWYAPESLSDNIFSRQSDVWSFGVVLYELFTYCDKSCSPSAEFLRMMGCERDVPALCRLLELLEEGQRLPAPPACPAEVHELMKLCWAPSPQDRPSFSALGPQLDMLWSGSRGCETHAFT
T2 sequence (P23458 875-1153 limits assumed): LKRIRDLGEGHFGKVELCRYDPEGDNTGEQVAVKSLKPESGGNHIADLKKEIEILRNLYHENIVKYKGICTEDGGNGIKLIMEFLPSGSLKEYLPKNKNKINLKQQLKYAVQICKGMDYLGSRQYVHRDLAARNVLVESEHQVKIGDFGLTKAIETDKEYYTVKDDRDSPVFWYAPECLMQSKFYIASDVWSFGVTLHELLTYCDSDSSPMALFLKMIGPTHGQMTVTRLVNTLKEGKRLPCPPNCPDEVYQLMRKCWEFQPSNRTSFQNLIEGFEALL

`Cn1cc(-c2nc3c(N4CC5CCC(C4)N5[C@H]4CC[C@H]4O)ccnc3[nH]2)cn1` (racemic) [Example 8, (1RS,2SR)-2-(3-(2-(1-methyl-1H-pyrazol-4-yl)-3H-imidazo[4,5-b]pyridin-7-yl)-3,8-diazabicyclo[3.2.1]octan-8-yl)cyclobutan-1-ol]: the IC50 is 830 nM in experiment [1] (setting [5]), 7100 nM in experiment [2] (setting [6]), 3150 nM in experiment [3] (setting [7]) and more than 10000 nM in experiment [4] (setting [8]).

For `Cn1cc(-c2cc3c(N4CC5CCC(C4)N5[C@H]4CC[C@@H]4O)ccnn3c2)cn1` (racemic) [Example 49, rac-(1S,2S)-2-(3-(6-(1-methyl-1H-pyrazol-4-yl)pyrrolo[1,2-b]pyridazin-4-yl)-3,8-diazabicyclo[3.2.1]octan-8-yl)cyclobutan-1-ol], the IC50 in experiment [1] (setting [5]) was 425 nM; in experiment [2] (setting [6]), more than 10000 nM; in experiment [3] (setting [7]) it was 7700 nM; in experiment [4] (setting [8]) it was more than 10000 nM.

In the case of `Cn1cc(-c2cc3c(N4CC5CCC(C4)N5[C@H]4CC[C@H]4O)ccnn3c2)cn1` (racemic) [Example 50, rac-(1R,2S)-2-(3-(6-(1-methyl-1H-pyrazol-4-yl)pyrrolo[1,2-b]pyridazin-4-yl)-3,8-diazabicyclo[3.2.1]octan-8-yl)cyclobutan-1-ol], the IC50 was 505 nM in experiment [1] (setting [5]), more than 10000 nM in experiment [2] (setting [6]), 7350 nM in experiment [3] (setting [7]) and more than 10000 nM in experiment [4] (setting [8]).

With `CO[C@H]1CC[C@@H]1N1C2CCC1CN(c1ccnn3cc(-c4cnn(C)c4)cc13)C2` (racemic) [Example 51, Rac-4-(8-((1S,2S)-2-methoxycyclobutyl)-3,8-diazabicyclo[3.2.1]octan-3-yl)-6-(1-methyl-1H-pyrazol-4-yl)pyrrolo[1,2-b]pyridazine], the IC50 in experiment [1] was 745 nM; in experiment [2], more than 10000 nM; in experiment [3] it was 6050 nM; in experiment [4], more than 10000 nM.

Consider `Cn1cc(-c2nc3c(N4CC5CCC(C4)N5[C@H]4CC[C@@H]4O)ccnc3[nH]2)cn1` (single isomer, unassigned) [Example 7, (1RS,2RS)-2-(3-(2-(1-methyl-1H-pyrazol-4-yl)-3H-imidazo[4,5-b]pyridin-7-yl)-3,8-diazabicyclo[3.2.1]octan-8-yl)cyclobutan-1-ol], for which the IC50 in experiment [1] (setting [5]) was 610 nM; in experiment [2] (setting [6]), more than 10000 nM; in experiment [3] (setting [7]), 3300 nM; in experiment [4] (setting [8]), more than 10000 nM.

In the case of `Cn1cc(-c2cc3c(N4CC5CCC(C4)N5[C@H]4CCC45COC5)ccnn3c2)cn1` (single isomer, unassigned) [Example 40], the IC50 in experiment [1] is 320 nM; in experiment [2], more than 10000 nM; in experiment [3] it was 1900 nM; in experiment [4], more than 10000 nM.

Take `Cn1cc(-c2cc3c(N4CC5CCC(C4)N5[C@@H]4CCC45COC5)ccnn3c2)cn1` (single isomer, unassigned) [Example 41]: the IC50 in experiment [1] came out at 71 nM; in experiment [2], 2200 nM; in experiment [3], 420 nM; in experiment [4] it was 8450 nM.

Consider `Cn1cc(-c2cc3c(N4CC5CCC(C4)N5[C@H]4C[C@H](C#N)C4(C)C)ccnn3c2)cn1` (single isomer, unassigned) [Example 46], for which the IC50 is 34 nM in experiment [1], 955 nM in experiment [2], 215 nM in experiment [3] and 1850 nM in experiment [4].

As for `Cn1cc(-c2cc3c(N4CC5CCC(C4)N5[C@H]4C[C@@H](C#N)C4(C)C)ccnn3c2)cn1` (single isomer, unassigned) [Example 47], the IC50 was 2.33 nM in experiment [1], 72.3 nM in experiment [2], 17.3 nM in experiment [3] and 130 nM in experiment [4].

Consider `Cn1cc(-c2cc3c(N4CC5CCC(C4)N5[C@@H]4C[C@H](C#N)C4(C)C)ccnn3c2)cn1` (single isomer, unassigned) [Example 48], for which the IC50 in experiment [1] was 35 nM; in experiment [2] it was 925 nM; in experiment [3] it was 180 nM; in experiment [4], 1350 nM.

Take `Cn1cc(-c2nc3c(N4CC5CCC(C4)N5[C@H]4C[C@](C)(C#N)C4)ccnc3[nH]2)cn1` [Example 1, (1R,3r)-1-methyl-3-(3-(2-(1-methyl-1H-pyrazol-4-yl)-3H-imidazo[4,5-b]pyridin-7-yl)-3,8-diazabicyclo[3.2.1]octan-8-yl)cyclobutane-1-carbonitrile]: the IC50 stood at 13.4 nM in experiment [1] (setting [5]), 175 nM in experiment [2] (setting [6]), 102 nM in experiment [3] (setting [7]) and 850 nM in experiment [4] (setting [8]).

`Cn1cc(-c2nc3c(N4CC5CCC(C4)N5[C@H]4C[C@@](C)(C#N)C4)ccnc3[nH]2)cn1` [Example 2, (1S,3s)-1-methyl-3-(3-(2-(1-methyl-1H-pyrazol-4-yl)-3H-imidazo[4,5-b]pyridin-7-yl)-3,8-diazabicyclo[3.2.1]octan-8-yl)cyclobutane-1-carbonitrile]: the IC50 in experiment [1] (setting [5]) turned out to be 1.2 nM; in experiment [2] (setting [6]), 14.7 nM; in experiment [3] (setting [7]), 9 nM; in experiment [4] (setting [8]), 68 nM.

On to `Cn1cc(-c2nc3c(N4CC5CCC(C4)N5[C@H]4C[C@H](C#N)C4)ccnc3[nH]2)cn1` [Example 3, (1R,3r)-3-(3-(2-(1-methyl-1H-pyrazol-4-yl)-3H-imidazo[4,5-b]pyridin-7-yl)-3,8-diazabicyclo[3.2.1]octan-8-yl)cyclobutane-1-carbonitrile], for which the IC50 amounted to 44 nM in experiment [1] (setting [5]), 430 nM in experiment [2] (setting [6]), 236 nM in experiment [3] (setting [7]) and 1450 nM in experiment [4] (setting [8]).

Regarding `Cn1cc(-c2nc3c(N4CC5CCC(C4)N5[C@H]4C[C@@H](C#N)C4)ccnc3[nH]2)cn1` [Example 4, (1S,3s)-3-(3-(2-(1-methyl-1H-pyrazol-4-yl)-3H-imidazo[4,5-b]pyridin-7-yl)-3,8-diazabicyclo[3.2.1]octan-8-yl)cyclobutane-1-carbonitrile], the IC50 in experiment [1] (setting [5]) turned out to be 2.47 nM; in experiment [2] (setting [6]), 18.7 nM; in experiment [3] (setting [7]) it was 9.93 nM; in experiment [4] (setting [8]), 65.3 nM.

Take `CO[C@H]1C[C@H](N2C3CCC2CN(c2ccnc4[nH]c(-c5cnn(C)c5)nc24)C3)C1` [Example 5, 7-(8-((1r,3R)-3-methoxycyclobutyl)-3,8-diazabicyclo[3.2.1]octan-3-yl)-2-(1-methyl-1H-pyrazol-4-yl)-3H-imidazo[4,5-b]pyridine]: the IC50 worked out at 145 nM in experiment [1] (setting [5]), 900 nM in experiment [2] (setting [6]), 870 nM in experiment [3] (setting [7]) and 9700 nM in experiment [4] (setting [8]).

Consider `CO[C@H]1C[C@@H](N2C3CCC2CN(c2ccnc4[nH]c(-c5cnn(C)c5)nc24)C3)C1` [Example 6, 7-(8-((1s,3S)-3-methoxycyclobutyl)-3,8-diazabicyclo[3.2.1]octan-3-yl)-2-(1-methyl-1H-pyrazol-4-yl)-3H-imidazo[4,5-b]pyridine], for which the IC50 in experiment [1] (setting [5]) is 305 nM; in experiment [2] (setting [6]), 1800 nM; in experiment [3] (setting [7]), 1150 nM; in experiment [4] (setting [8]) it was more than 10000 nM.

As to `Cn1cc(-c2nc3c(N4CC5CCC(C4)N5C4COC4)ccnc3[nH]2)cn1` [Example 9, 2-(1-methyl-1H-pyrazol-4-yl)-7-(8-(oxetan-3-yl)-3,8-diazabicyclo[3.2.1]octan-3-yl)-3H-imidazo[4,5-b]pyridine], the IC50 was 42.5 nM in experiment [1], 275 nM in experiment [2], 220 nM in experiment [3] and more than 1000 nM in experiment [4].

The IC50 is the point on the concentration scale where inhibition reaches its midpoint.
